Peptide text beside a SMILES is read from it.
Target: HLA-A2 MHC-I (HLA-A*0204) (Homo sapiens, UniProt P04439, D140Y/D185E/D98H/E176V/E277Q/G131W/G231S/I119V/I121M/I166T/I218V/L300P/L318F/N151K/N90K/P208A/P217A/Q86G/Q94H/R138H/R169H/T345S)
Test: biochemical

Structure (SMILES)	Kd [µM]
CC[C@H](C)[C@H](NC(=O)[C@H](CCC(N)=O)NC(=O)[C@H](CCC(=O)O)NC(=O)[C@H](CCC(N)=O)NC(=O)[C@H](CC(C)C)NC(=O)[C@@H](N)[C@@H](C)O)C(=O)NCC(=O)N[C@@H](Cc1c[nH]c2ccccc12)C(=O)N[C@@H](CCSC)C(=O)O [8.56nat] (H-TLQEQIGWM-OH)	0.245
CC(C)C[C@H](NC(=O)[C@H](C)N)C(=O)NCC(=O)N1CCC[C@H]1C(=O)N[C@@H](C)C(=O)N[C@@H](C)C(=O)N[C@H](C(=O)N[C@@H](CC(C)C)C(=O)N[C@H](C(=O)O)C(C)C)[C@@H](C)O [8.64mod] (H-ALGPAATLV-OH)	0.0013
CC(C)C[C@H](NC(=O)[C@H](C)N)C(=O)NCC(=O)N1CCC[C@H]1C(=O)N[C@@H](C)C(=O)N[C@@H](C)C(=O)N[C@H](C(=O)N[C@@H](CC(C)C)C(=O)N[C@@H](CCC(=O)O)C(=O)O)[C@@H](C)O [8.64nat] (H-ALGPAATLE-OH)	0.83
CSCC[C@H](NC(=O)[C@H](CCC(=O)O)NC(=O)[C@H](CCC(=O)O)NC(=O)[C@H](CC(C)C)NC(=O)[C@H](CC(C)C)NC(=O)[C@H](C)N)C(=O)N[C@@H](CCSC)C(=O)N[C@H](C(=O)N[C@H](C(=O)O)C(C)C)[C@@H](C)O [8.65mod] (H-ALLEEMMTV-OH)	0.0011
CSCC[C@H](NC(=O)[C@H](CCC(=O)O)NC(=O)[C@H](CCC(=O)O)NC(=O)[C@H](CC(C)C)NC(=O)[C@@H](NC(=O)[C@H](C)N)[C@@H](C)O)C(=O)N[C@@H](CCSC)C(=O)N[C@H](C(=O)N[C@@H](C)C(=O)O)[C@@H](C)O [8.65nat] (H-ATLEEMMTA-OH)	0.077
CSCC[C@H](NC(=O)[C@H](CC(C)C)NC(=O)[C@@H](N)CCC(=O)O)C(=O)N[C@H](C(=O)N[C@@H](C)C(=O)N[C@@H](CS)C(=O)N[C@@H](CCC(N)=O)C(=O)NCC(=O)N[C@H](C(=O)O)C(C)C)[C@@H](C)O [8.66mod] (H-ELMTACQGV-OH)	3.97
CC[C@H](C)[C@H](NC(=O)[C@@H](N)CC(N)=O)C(=O)N[C@@H](Cc1c[nH]c2ccccc12)C(=O)N[C@@H](C)C(=O)N[C@H](C(=O)N[C@@H](Cc1c[nH]cn1)C(=O)N[C@@H](C)C(=O)N[C@@H](CS)C(=O)N[C@H](C(=O)O)C(C)C)[C@@H](C)O [8.75natV] (H-NIWATHACV-OH)	0.057
CC(C)C[C@H](NC(=O)[C@@H](N)CCCCN)C(=O)N[C@H](C(=O)N1CCC[C@H]1C(=O)N[C@@H](CC(C)C)C(=O)N[C@@H](CS)C(=O)N[C@H](C(=O)N[C@H](C(=O)N[C@H](C(=O)O)C(C)C)[C@@H](C)O)C(C)C)[C@@H](C)O [8.76mod] (H-KLTPLCVTV-OH)	0.043
CC[C@H](C)[C@H](NC(=O)[C@H](CO)NC(=O)[C@H](C)NC(=O)[C@H](C)NC(=O)CNC(=O)[C@H](CC(C)C)NC(=O)[C@@H](N)[C@@H](C)O)C(=O)N[C@H](C(=O)N[C@H](C(=O)O)C(C)C)[C@@H](C)O [8.85mod] (H-TLGAASITV-OH)	0.385
CC(C)C[C@H](NC(=O)[C@H](C)N)C(=O)N[C@@H](CCC(=O)O)C(=O)N[C@@H](C)C(=O)N[C@@H](CCC(N)=O)C(=O)N[C@@H](CCC(N)=O)C(=O)N[C@@H](Cc1c[nH]cn1)C(=O)N[C@@H](CC(C)C)C(=O)N[C@H](C(=O)O)C(C)C [8.88mod] (H-ALEAQQHLV-OH)	0.0012
CC[C@H](C)[C@H](NC(=O)[C@H](C)N)C(=O)N[C@@H](CCC(=O)O)C(=O)N[C@@H](C)C(=O)N[C@@H](CCC(N)=O)C(=O)N[C@@H](CCC(N)=O)C(=O)N[C@@H](Cc1c[nH]cn1)C(=O)N[C@@H](CC(C)C)C(=O)N[C@@H](CC(C)C)C(=O)O [8.88nat] (H-AIEAQQHLL-OH)	0.85
CC[C@H](C)[C@H](NC(=O)[C@H](CCCCN)NC(=O)[C@H](CC(C)C)NC(=O)[C@@H](N)Cc1ccc(O)cc1)C(=O)N[C@@H](Cc1ccccc1)C(=O)N[C@H](C(=O)N[C@@H](CCSC)C(=O)N[C@H](C(=O)N[C@H](C(=O)O)C(C)C)[C@@H](C)CC)[C@@H](C)CC [8.93mod] (H-YLKIFIMIV-OH)	0.013
CC[C@H](C)[C@H](NC(=O)[C@H](CCCCN)NC(=O)[C@@H](NC(=O)[C@@H](N)Cc1ccc(O)cc1)[C@@H](C)CC)C(=O)N[C@@H](Cc1ccccc1)C(=O)N[C@H](C(=O)N[C@@H](CCSC)C(=O)N[C@H](C(=O)N[C@H](C(=O)O)C(C)C)[C@@H](C)CC)[C@@H](C)CC [8.93nat] (H-YIKIFIMIV-OH)	0.024
CC(C)C[C@H](NC(=O)[C@@H](N)Cc1ccccc1)C(=O)N[C@@H](CC(N)=O)C(=O)N[C@H](C(=O)N1CCC[C@H]1C(=O)N1CCC[C@H]1C(=O)N[C@@H](CC(C)C)C(=O)N[C@H](C(=O)O)C(C)C)[C@@H](C)O [8.111mod] (H-FLNTPPLV-OH)	0.0056
CC(C)C[C@H](NC(=O)[C@@H]1CCCN1C(=O)[C@@H]1CCCN1C(=O)[C@@H](NC(=O)[C@H](CC(N)=O)NC(=O)[C@@H](NC(=O)[C@@H](N)Cc1ccccc1)C(C)C)[C@@H](C)O)C(=O)N[C@H](C(=O)O)C(C)C [8.111nat]	0.032
CC[C@H](C)[C@H](NC(=O)[C@@H]1CCCN1C(=O)[C@H](Cc1ccccc1)NC(=O)[C@H](CC(C)C)NC(=O)[C@@H](N)CC(C)C)C(=O)N[C@@H](CO)C(=O)N1CCC[C@H]1C(=O)N[C@H](C(=O)O)C(C)C [8.115mod] (H-LLFPISPV-OH)	0.0162
CC[C@H](C)[C@H](NC(=O)[C@@H]1CCCN1C(=O)[C@H](CO)NC(=O)[C@@H](NC(=O)[C@@H]1CCCN1C(=O)[C@H](Cc1ccccc1)NC(=O)[C@H](CC(N)=O)NC(=O)[C@@H](N)CC(C)C)[C@@H](C)CC)C(=O)O [8.115nat] (H-LNFPISPI-OH)	0.029
CC[C@H](C)[C@H](NC(=O)CNC(=O)[C@H](CC(C)C)NC(=O)[C@H](C)N)C(=O)N[C@H](C(=O)N[C@@H](CCC(N)=O)C(=O)N[C@@H](C)C(=O)N[C@H](C(=O)O)C(C)C)[C@@H](C)CC [8.116mod] (H-ALGIIQAV-OH)	0.026
CC[C@H](C)[C@H](NC(=O)CNC(=O)[C@H](CC(C)C)NC(=O)[C@H](C)N)C(=O)N[C@H](C(=O)N[C@@H](CCC(N)=O)C(=O)N[C@@H](C)C(=O)N[C@@H](CCC(N)=O)C(=O)O)[C@@H](C)CC [8.116nat] (H-ALGIIQAQ-OH)	0.097
CC(C)C[C@H](NC(=O)[C@H](CCCCN)NC(=O)[C@H](Cc1ccccc1)NC(=O)[C@H](CC(C)C)NC(=O)[C@@H](N)Cc1c[nH]c2ccccc12)C(=O)N[C@H](C(=O)N1CCC[C@H]1C(=O)N[C@H](C(=O)O)C(C)C)C(C)C [8.121mod] (H-WLFKLVPV-OH)	0.183
CC(C)C[C@H](NC(=O)[C@H](CCCCN)NC(=O)[C@H](Cc1ccccc1)NC(=O)[C@H](CS)NC(=O)[C@@H](N)Cc1c[nH]c2ccccc12)C(=O)N[C@H](C(=O)N1CCC[C@H]1C(=O)N[C@H](C(=O)O)C(C)C)C(C)C [8.121nat] (H-WCFKLVPV-OH)	0.2
CC[C@H](C)[C@H](NC(=O)[C@@H]1CCCN1C(=O)[C@@H]1CCCN1C(=O)[C@H](CC(N)=O)NC(=O)[C@H](CC(C)C)NC(=O)[C@@H](N)[C@@H](C)O)C(=O)N1CCC[C@H]1C(=O)N[C@H](C(=O)O)C(C)C [8.123mod] (H-TLNPPIPV-OH)	0.011
CC[C@H](C)[C@H](NC(=O)[C@@H]1CCCN1C(=O)[C@@H]1CCCN1C(=O)[C@H](CC(N)=O)NC(=O)CNC(=O)[C@@H](N)[C@@H](C)O)C(=O)N1CCC[C@H]1C(=O)N[C@H](C(=O)O)C(C)C [8.123natG] (H-TGNPPIPV-OH)	0.7
CC[C@H](C)[C@H](NC(=O)[C@H](CCC(=O)O)NC(=O)[C@@H]1CCCN1C(=O)[C@H](CC(=O)O)NC(=O)CNC(=O)[C@H](CC(C)C)NC(=O)[C@@H](N)CO)C(=O)N[C@H](C(=O)O)C(C)C [8.130mod] (H-SLGDPEIV-OH)	0.26
CC[C@H](C)[C@H](NC(=O)[C@H](CCC(=O)O)NC(=O)[C@@H]1CCCN1C(=O)[C@H](CC(=O)O)NC(=O)CNC(=O)CNC(=O)[C@@H](N)CO)C(=O)N[C@H](C(=O)O)C(C)C [8.130nat] (H-SGGDPEIV-OH)	0.95
CC(C)C[C@H](NC(=O)[C@@H](N)Cc1ccccc1)C(=O)NCC(=O)N[C@@H](C)C(=O)N[C@@H](C)C(=O)NCC(=O)N[C@@H](CO)C(=O)N[C@H](C(=O)O)C(C)C [8.135mod] (H-FLGAAGSV-OH)	0.005
CC(C)C[C@H](NC(=O)[C@@H](N)Cc1ccccc1)C(=O)NCC(=O)N[C@@H](C)C(=O)N[C@@H](C)C(=O)NCC(=O)N[C@@H](CO)C(=O)N[C@H](C(=O)O)[C@@H](C)O [8.135nat] (H-FLGAAGST-OH)	0.87
CC(C)C[C@H](NC(=O)[C@@H](NC(=O)[C@@H](N)CCCNC(=N)N)[C@@H](C)O)C(=O)N[C@@H](CC(N)=O)C(=O)N[C@@H](C)C(=O)N[C@@H](Cc1c[nH]c2ccccc12)C(=O)N[C@H](C(=O)N[C@@H](CCCCN)C(=O)N[C@H](C(=O)O)C(C)C)C(C)C [reference compound] (H-RTLNAWVKV-OH)	0.17
